Like-named read-outs stand apart in the source and are kept apart here.
Columns and labels:
Format in all cases: cell-based
[1] = target: T1, zebrafish αβδε nAChR (ε-type) (Danio rerio, UniProt A2BG85+Q75XT1+Q98880); assay: TEVC inhibition of ACh-elicited nAChR current in Xenopus oocytes, ε-type; conditions: for Hill coefficient: inhibition, ε-type
Method: (§1) The bath solution was ND96. […] Oocytes were incubated around 30 sec in the bath solution containing inhibitors of identical concentration. Recordings were performed at room temperature. Holding potential was -80 mV. Vecuronium and rocuronium were purchased from Tokyo Chemical Industry. Pancuronium and d-tubocurarine were purchased from Alomone Labs and FUJIFILM Wako Chemicals, respectively.
(§2) Fitting algorism is identical to that of ACh.

[2] = target: T2, zebrafish αβδ nAChR (δ-type) (Danio rerio, UniProt Q75XT1+Q98880); assay: TEVC inhibition of ACh-elicited nAChR current in Xenopus oocytes, δ-type; conditions: for Hill coefficient: inhibition, δ-type
T2 sequence (Q98880 21-456): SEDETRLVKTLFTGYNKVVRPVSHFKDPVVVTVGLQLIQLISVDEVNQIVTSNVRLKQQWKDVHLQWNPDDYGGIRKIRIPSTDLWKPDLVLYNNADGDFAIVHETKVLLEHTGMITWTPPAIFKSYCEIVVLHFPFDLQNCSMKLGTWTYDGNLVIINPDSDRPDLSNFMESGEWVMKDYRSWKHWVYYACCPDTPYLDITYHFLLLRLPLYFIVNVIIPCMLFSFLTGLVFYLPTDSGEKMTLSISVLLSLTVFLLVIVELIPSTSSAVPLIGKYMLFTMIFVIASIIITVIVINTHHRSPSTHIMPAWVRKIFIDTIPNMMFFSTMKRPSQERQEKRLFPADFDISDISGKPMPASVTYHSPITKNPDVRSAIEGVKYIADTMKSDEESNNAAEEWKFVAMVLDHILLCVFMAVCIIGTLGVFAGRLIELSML
T2 sequence (Q75XT1 22-518): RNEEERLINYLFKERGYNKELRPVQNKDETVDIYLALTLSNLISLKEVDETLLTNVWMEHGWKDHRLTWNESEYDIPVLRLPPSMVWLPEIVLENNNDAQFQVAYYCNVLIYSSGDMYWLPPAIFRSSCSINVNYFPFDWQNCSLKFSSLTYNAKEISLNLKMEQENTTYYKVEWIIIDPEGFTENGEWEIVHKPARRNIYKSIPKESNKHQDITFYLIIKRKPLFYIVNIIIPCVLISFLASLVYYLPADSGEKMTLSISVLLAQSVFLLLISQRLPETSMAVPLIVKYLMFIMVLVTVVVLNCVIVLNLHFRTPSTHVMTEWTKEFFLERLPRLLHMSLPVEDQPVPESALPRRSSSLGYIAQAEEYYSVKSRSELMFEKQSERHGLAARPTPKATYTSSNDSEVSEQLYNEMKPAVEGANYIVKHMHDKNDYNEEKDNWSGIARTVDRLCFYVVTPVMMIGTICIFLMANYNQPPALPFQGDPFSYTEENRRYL
T2 sequence (G1FMP8 23-492 partner): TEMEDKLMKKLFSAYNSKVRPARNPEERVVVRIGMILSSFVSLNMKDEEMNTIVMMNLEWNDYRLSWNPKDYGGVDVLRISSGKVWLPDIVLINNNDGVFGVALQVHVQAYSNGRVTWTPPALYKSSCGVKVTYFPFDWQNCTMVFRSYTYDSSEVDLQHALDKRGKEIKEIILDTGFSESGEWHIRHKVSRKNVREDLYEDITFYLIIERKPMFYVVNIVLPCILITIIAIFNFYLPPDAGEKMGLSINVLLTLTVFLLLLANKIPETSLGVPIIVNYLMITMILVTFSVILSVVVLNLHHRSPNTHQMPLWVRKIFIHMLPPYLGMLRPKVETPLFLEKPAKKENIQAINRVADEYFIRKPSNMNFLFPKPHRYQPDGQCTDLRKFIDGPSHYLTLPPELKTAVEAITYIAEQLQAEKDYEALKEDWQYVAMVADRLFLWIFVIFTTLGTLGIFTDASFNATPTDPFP
Method: as §1, §2

[3] = target: zebrafish nAChR containing ε/δ/ε chimeric subunit (Danio rerio, UniProt A2BG85+Q75XT1+Q98880); assay: TEVC inhibition of nAChR current, α, β, δ + ε/δ/ε chimera; conditions: 100 μM ACh, mean ± sem
Method: as §1, §2

[4] = target: zebrafish nAChR containing δ/δ/ε chimeric subunit (Danio rerio, UniProt A2BG85+Q75XT1+Q98880); assay: TEVC inhibition of nAChR current, α, β, δ + δ/δ/ε chimera; conditions: 100 μM ACh, mean ± sem
Method: as §1, §2

[5] = target: zebrafish nAChR containing δ/ε/δ chimeric subunit (Danio rerio, UniProt A2BG85+Q75XT1+Q98880); assay: TEVC inhibition of nAChR current, α, β, δ + δ/ε/δ chimera; conditions: 100 μM ACh, mean ± sem
Method: as §1, §2

[6] = target: zebrafish nAChR containing ε/ε/δ chimeric subunit (Danio rerio, UniProt A2BG85+Q75XT1+Q98880); assay: TEVC inhibition of nAChR current, α, β, δ + ε/ε/δ chimera; conditions: 100 μM ACh, mean ± sem
Method: as §1, §2

[7] = target: T2, zebrafish αβδ nAChR (δ-type); assay: Voltage-dependent block tested by ramp pulses, δ-type; conditions: 20 nM pancuronium
Method: (§3) To examine possible pore blocking activity of pancuronium, the voltage-dependent block was tested by ramp pulses in the presence of pancuronium.
(§4) Fig 10 Voltage-dependent change of the conductance in the presence and absence of pancuronium. (A1), (B1), Representative current traces of the ε-type (A1) and the δ-type (B1). The black and gray traces are in the absence and the presence of 20 nM pancuronium, respectively. Pulse protocols are shown at the bottom. (A2), (B2), Representative I-V curves of the ε-type (A2) and the δ-type (B2). (A3), (B3), G-V curves of the ε-type (A3) and the δ-type (B3). Data were normalized by the conductance at -100 mV. Data are shown as mean ± sem. (N = 9 for all data).

[8] = target: T1, zebrafish αβδε nAChR (ε-type); assay: Voltage-dependent block tested by ramp pulses, ε-type; conditions: 20 nM pancuronium
Method: as §3, §4

[9] = target: zebrafish nAChR containing δ/ε/ε chimeric subunit (Danio rerio, UniProt A2BG85+Q75XT1+Q98880); assay: TEVC inhibition of nAChR current, α, β, δ + δ/ε/ε chimera; conditions: mean ± sem
zebrafish nAChR containing δ/ε/ε chimeric subunit, sequence (Q75XT1 1-234, stated change not applied): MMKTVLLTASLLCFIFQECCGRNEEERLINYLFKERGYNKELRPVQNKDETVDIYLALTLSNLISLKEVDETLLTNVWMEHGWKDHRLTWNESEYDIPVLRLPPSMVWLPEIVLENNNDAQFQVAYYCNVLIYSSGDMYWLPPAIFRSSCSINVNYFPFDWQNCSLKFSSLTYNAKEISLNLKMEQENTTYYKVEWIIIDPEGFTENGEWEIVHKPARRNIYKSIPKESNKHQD
zebrafish nAChR containing δ/ε/ε chimeric subunit, sequence (A2BG85 235-517, stated change not applied): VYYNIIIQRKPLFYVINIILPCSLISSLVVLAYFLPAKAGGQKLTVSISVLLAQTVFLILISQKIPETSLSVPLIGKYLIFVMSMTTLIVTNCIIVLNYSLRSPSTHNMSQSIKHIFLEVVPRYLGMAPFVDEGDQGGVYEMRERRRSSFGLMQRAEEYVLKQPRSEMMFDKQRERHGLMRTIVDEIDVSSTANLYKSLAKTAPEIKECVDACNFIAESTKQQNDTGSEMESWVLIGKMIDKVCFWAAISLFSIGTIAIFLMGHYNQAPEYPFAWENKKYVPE
zebrafish nAChR containing δ/ε/ε chimeric subunit, sequence (Q98880 21-456, stated change not applied): as the sequence (Q98880 21-456) above
zebrafish nAChR containing δ/ε/ε chimeric subunit, sequence (Q75XT1 1-234, stated change not applied): as the sequence (Q75XT1 1-234, stated change not applied) above
zebrafish nAChR containing δ/ε/ε chimeric subunit, sequence (G1FMP8 23-492 partner): as the sequence (G1FMP8 23-492 partner) above
Method: as §1, §2

[10] = target: zebrafish nAChR containing ε/δ/δ chimeric subunit (Danio rerio, UniProt A2BG85+Q75XT1+Q98880); assay: TEVC inhibition of nAChR current, α, β, δ + ε/δ/δ chimera; conditions: mean ± sem
zebrafish nAChR containing ε/δ/δ chimeric subunit, sequence (A2BG85 1-234, stated change not applied): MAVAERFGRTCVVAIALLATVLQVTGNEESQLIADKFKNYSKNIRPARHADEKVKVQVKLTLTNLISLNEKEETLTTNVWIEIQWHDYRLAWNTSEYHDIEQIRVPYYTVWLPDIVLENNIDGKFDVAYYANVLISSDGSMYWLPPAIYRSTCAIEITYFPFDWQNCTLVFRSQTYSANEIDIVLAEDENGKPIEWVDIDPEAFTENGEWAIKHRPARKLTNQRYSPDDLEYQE
zebrafish nAChR containing ε/δ/δ chimeric subunit, sequence (Q75XT1 235-518, stated change not applied): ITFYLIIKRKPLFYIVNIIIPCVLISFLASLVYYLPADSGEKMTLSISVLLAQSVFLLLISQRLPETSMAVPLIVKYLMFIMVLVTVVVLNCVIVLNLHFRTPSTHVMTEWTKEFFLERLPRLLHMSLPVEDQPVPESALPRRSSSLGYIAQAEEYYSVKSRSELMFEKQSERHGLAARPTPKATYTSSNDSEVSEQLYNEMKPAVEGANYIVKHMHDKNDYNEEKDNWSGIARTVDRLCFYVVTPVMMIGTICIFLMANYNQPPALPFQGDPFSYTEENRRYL
zebrafish nAChR containing ε/δ/δ chimeric subunit, sequence (Q98880 21-456, stated change not applied): as the sequence (Q98880 21-456) above
zebrafish nAChR containing ε/δ/δ chimeric subunit, sequence (Q75XT1 235-518, stated change not applied): as the sequence (Q75XT1 235-518, stated change not applied) above
zebrafish nAChR containing ε/δ/δ chimeric subunit, sequence (G1FMP8 23-492 partner): as the sequence (G1FMP8 23-492 partner) above
Method: as §1, §2

[11] = IC50, ε-type, current elicited by 100 μM ACh, -80 mV, mean ± sem
[12] = IC50, δ-type, current elicited by 100 μM ACh, -80 mV, mean ± sem

T1 sequence (Q98880 21-456): as the sequence (Q98880 21-456) above
T1 sequence (Q75XT1 22-518): as the sequence (Q75XT1 22-518) above
T1 sequence (A2BG85 27-517): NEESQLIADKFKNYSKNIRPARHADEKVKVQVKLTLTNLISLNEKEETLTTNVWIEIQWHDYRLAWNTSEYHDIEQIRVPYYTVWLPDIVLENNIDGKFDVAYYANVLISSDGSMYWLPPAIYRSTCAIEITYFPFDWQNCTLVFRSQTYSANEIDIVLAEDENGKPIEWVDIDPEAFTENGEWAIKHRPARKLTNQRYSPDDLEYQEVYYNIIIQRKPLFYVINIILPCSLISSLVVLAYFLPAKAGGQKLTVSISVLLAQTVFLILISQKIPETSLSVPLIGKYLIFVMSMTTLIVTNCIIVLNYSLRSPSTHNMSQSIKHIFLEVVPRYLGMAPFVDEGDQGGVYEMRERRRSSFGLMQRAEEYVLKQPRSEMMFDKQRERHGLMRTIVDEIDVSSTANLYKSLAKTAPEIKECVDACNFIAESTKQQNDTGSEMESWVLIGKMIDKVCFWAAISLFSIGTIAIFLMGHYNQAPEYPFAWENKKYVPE
T1 sequence (G1FMP8 23-492 partner): as the sequence (G1FMP8 23-492 partner) above

Row | SMILES | IC50 [1, 11] [nM] | Hill coefficient ([1]; 100 μM ACh, mean ± sem) | IC50 [2, 12] [nM] | Hill coefficient ([2]; 100 μM ACh, mean ± sem) | Hill coefficient [3] | Hill coefficient [4] | IC50 ([1]; IC50, ε-type, by 2 μM ACh, mean ± sem) [nM] | Hill coefficient ([1]; by 2 μM ACh, mean ± sem) | IC50 ([2]; IC50, δ-type, by 2 μM ACh, mean ± sem) [nM] | Hill coefficient ([2]; by 2 μM ACh, mean ± sem) | Hill coefficient [5] | Hill coefficient [6] | voltage-dependent block [7] | voltage-dependent block [8] | Hill coefficient ([9]; 100 μM ACh) | Hill coefficient ([9]; by 2 μM ACh) | Hill coefficient ([10]; 100 μM ACh) | Hill coefficient ([10]; by 2 μM ACh) | IC50 [1] [nM] | IC50 [2] [nM]
1 | CC(=O)O[C@H]1C[C@@H]2CC[C@@H]3[C@H](CC[C@@]4(C)[C@H]3C[C@H]([N+]3(C)CCCCC3)[C@@H]4OC(C)=O)[C@@]2(C)C[C@@H]1N1CCCCC1 [vecuronium] | 1.1 ± 0.2 | 1.3 ± 0.2 | 0.7 ± 0.1 | 1.0 ± 0.1 | – | – | – | – | – | – | – | – | – | – | – | – | – | – | – | –
2 | CC(=O)O[C@H]1C[C@@H]2CC[C@@H]3[C@H](CC[C@@]4(C)[C@H]3C[C@H]([N+]3(C)CCCCC3)[C@@H]4OC(C)=O)[C@@]2(C)C[C@@H]1[N+]1(C)CCCCC1 [pancuronium] | 15.6 ± 1 | 1.1 ± 0.1 | 116 ± 29.2 | 1.3 ± 0.4 | 0.9 ± 0.1 | 1.0 ± 0.1 | 12.5 ± 1.9 | 1.1 ± 0.2 | 109 ± 30.9 | 1.1 ± 0.2 | 1.0 ± 0.1 | 1.8 ± 0.3 | voltage dependency of block was again not observed | the specific blockage of outward or inward current by pancuronium was not observed | 1.0 ± 0.0 | 1.8 ± 1.0 | 1.7 ± 0.5 | 1.4 ± 0.5 | – | –
3 | C=CC[N+]1([C@H]2C[C@H]3[C@@H]4CC[C@H]5C[C@H](O)[C@@H](N6CCOCC6)C[C@]5(C)[C@H]4CC[C@]3(C)[C@H]2OC(C)=O)CCCC1 [rocuronium] | 4.7 ± 0.7 | 0.7 ± 0.1 | 4.2 ± 0.7 | 1.1 ± 0.1 | – | – | – | – | – | – | – | – | – | – | – | – | – | – | – | –
4 | COc1cc2c3cc1Oc1cc(ccc1O)C[C@@H]1c4c(cc(OC)c(O)c4Oc4ccc(cc4)C[C@@H]3N(C)CC2)CC[N+]1(C)C [d-tubocurarine] | – | 1.2 ± 0.1 | – | 1.1 ± 0.1 | – | – | – | – | – | – | – | – | – | – | – | – | – | – | 112 ± 8.2 | 123 ± 18.7

Source: paper PMC10569638 (PLOS ONE, 2023)
